Assay results reported in ChEMBL document CHEMBL3259772, “Identification and characterization of small molecule modulators of the Epstein-Barr virus-induced gene 2 (EBI2) receptor” (J Med Chem, 2014).

Assays:
Format in all cases: ADME, organism-based
[1] = Apparent volume of distribution at steady state in C57BL/6 mouse at 1 mg/kg, iv administered as cassette dose; design: dose 1 mg/kg, route intravenous; details: in vivo, read-out: Vdss(app)
[2] = Terminal blood half life in C57BL/6 mouse at 1 mg/kg, iv administered as cassette dose; design: dose 1 mg/kg, route intravenous; details: read-out: beta t1/2 (converted)
[3] = test system: Mus musculus; assay: Total blood clearance in C57BL/6 mouse at 1 mg/kg, iv administered as cassette dose; design: dose 1 mg/kg, route intravenous; details: in vivo
[4] = AUC (infinity) in C57BL/6 mouse at 1 mg/kg, iv administered as cassette dose; design: time infinity, dose 1 mg/kg, route intravenous; details: plasma
[5] = Cmax in C57BL/6 mouse at 5 mg/kg, po administered as cassette dose; design: dose 5 mg/kg, route oral; details: in vivo
[6] = Tmax in C57BL/6 mouse at 5 mg/kg, po administered as cassette dose; design: dose 5 mg/kg, route oral; details: in vivo
[7] = Oral bioavailability in C57BL/6 mouse at 5 mg/kg administered as cassette dose; details: in vivo
[8] = AUC (infinity) in C57BL/6 mouse at 5 mg/kg, po administered as cassette dose; design: time infinity, dose 5 mg/kg, route oral; details: plasma

| Vd [1] | half-life [2] | CL [3] | AUC(0-inf) [4] | Cmax [5] | Tmax [6] | bioavailability [7] | AUC(0-inf) [8] | SMILES |
| --- | --- | --- | --- | --- | --- | --- | --- | --- |
| 0.8 L/kg | 0.2 h | 52 µL/min/mg | 841 nM·h | – | – | – | – | COc1ccc(/C=C/C(=O)N2CCN(C(=O)c3ccc(OC)cc3)CC2)cc1 |
| 1.4 L/kg | 1.1 h | 16 µL/min/mg | 2440 nM·h | 0.835 µM | 1 h | 49% | 3610 nM·h | COc1ccc(C(=O)N2CCN(C(=O)/C=C/c3ccc(Br)cc3)CC2)cc1 |
